Results: patent US6399648B1, “N-oxides of heterocyclic ester, amide, thioester, or ketone for vision and memory disorders” (GPI NIL Holdings, Inc., priority 1998, dated 2002)
Where two headings read alike, the source gives them in different places. Marks after values point to notes of the source that are not given here. Each block holds one molecule with its values, some of them ahead of it.

Columns and labels:
[1] = test system: retinal ganglion cells and optic nerve axons; experiment: In vivo retinal ganglion cell and optic nerve axon tests after optic nerve transection; conditions: for Efficacy in protecting retinal ganglion cell axons from degeneration following optic nerve transection: Table V; for RGC Counts (mean density of Fluoro-gold labeled retinal ganglion cells in 400 μm × 400 μm fields): 10 mg/kg/day sc;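 for all read-outs here: adult male Sprague Dawley rats with bilateral intraorbital optic nerve transection after retrograde fluorogold labeling of retinal ganglion cells, examined on fixed retinas and optic nerve stumps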
[2] = biological target: FKBP12 (Homo sapiens, UniProt P62942); experiment: Inhibition of FKBP peptidyl-prolyl isomerase (rotamase) activity, apparent Ki; type: biochemical
Chain of FKBP12 (P62942 whole entry, species assumed): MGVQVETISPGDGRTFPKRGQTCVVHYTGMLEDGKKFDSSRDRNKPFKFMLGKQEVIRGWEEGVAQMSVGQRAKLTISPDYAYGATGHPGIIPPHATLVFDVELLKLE

[3] = Clearance (Table V comments, no method given); type: in vitro ADME
[4] = test system: retinal ganglion cells; experiment: Retinal ischemia: degeneration of retinal ganglion cells, optic nerve axons and myelin; type: in vivo, rat; conditions: 10 mg/kg s.c. 1 hour prior to ischemia and 10 mg/kg/day for next four days, 28 days after ischemia
From the text: Retinal ganglion cells were retrogradely labeled in adult rats by bilateral injection of fluorogold in their lateral geniculate nuclei. Labeled ganglion cells in the normal rat retina appear as white profiles against the dark background (FIG. 1A). Complete retinal ischemia was produced by infusing normal saline solution into the retinal vitreous cavity of each eye until the intraocular pressure exceeded arterial blood pressure. 28 days after the ischemic episode extensive degeneration of retinal ganglion cell was evidenced by massive reduction in the density of fluorogold labeled cells (FIG. 1B).

[5] = test system: aged mice; experiment: Morris watermaze spatial learning and memory in aged rodents; type: in vivo; conditions: aged impaired mice, 10 mg/kg daily, retention testing after 3 weeks of dosing
From the text: The Morris watermaze is widely used for assessing spatial memory formation and retention in experimental animals. The test depends on the animals ability to utilize spatial visual information in order to locate a submerged escape platform in a water tank. It is important that the tank itself be as devoid of specific visual features as possible—thus, it is always circular in shape, the sides are kept smooth and in uniform dull colors, and the water is rendered opaque with nontoxic watercolor pigment or powdered milk. This is to ensure that the animal navigates only by the use of more distant visual cues, or by the use of intra-maze cues specifically provided by the experimenter. The animals' path, speed, and swim time are tracked with a ceiling camera for later computerized analysis. Over the course of several successive trials, spatial learning can therefore be defined as a drop of distance swum, or time elapsed, from placement in the tank until escape onto the invisible platform. The procedure involved using-three-month old (young) and 18-19 month old male C57BL/6Nia aged) mice which habituated to the well known and conventional Morris watermaze during a 4 trials/day, 3-4 day visible platform training phase. […] Swim Distances (cm) were analyzed in a 7×5 ANOVA including Groups and Blocks (1-5) as factors in the analysis, treating Blocks as a repeated measure.

[6] = ONT, 14 days treatment, 90 days after transection, ± SEM
[7] = ONT, 14 days treatment, 90 days after transection
[8] = ONT, 28 days treatment, 90 days after transection
[9] = ONT, 28 days treatment, 90 days after transection, ± SEM
[10] = Table V comments, read-out: Ki rotomase

Structure (SMILES): O=C(SCCCc1ccccc1)C1CCCN1C(=O)NC12CC3CC(CC(C3)C1)C2 (centres unmarked) [B]
Efficacy in protecting retinal ganglion cell axons from degeneration following optic nerve transection ([1]; ± SEM): 100.0% ± 5.2% SEM

Structure (SMILES): O=C(SCCCc1ccccc1)C1CCCN1S(=O)(=O)Cc1ccccc1 (centres unmarked) [C]
Efficacy in protecting retinal ganglion cell axons from degeneration following optic nerve transection ([1]; ± SEM): 60.4% ± 3.1 SEM

Ki ([2]; Table B, rotamase inhibition, read-out: Ki): 0.225 µM
Structure (SMILES): CCC(C)(C)C(=O)C(=O)N1CCC[C@H]1C(=O)OCCCc1ccc[n+]([O-])c1 [Compound 1, 3-(3-Pyridyl)-1-propyl(2S)-1-(1,1-Dimethyl-1,2-dioxopentyl)-2-pyrrolidine-carboxylate, N-oxide]

Clearance [3]: 4.5 µL/min
Structure (SMILES): CCC(C)(C)C(=O)C(=O)N1CCCCC1C(=O)SCCC(c1ccccc1)c1ccccc1 (centres unmarked) [Compound K]
Efficacy in protecting retinal ganglion cell axons from degeneration following optic nerve transection ([1]; ± SEM): 13.0% ± 4.2% SEM

Clearance ([3]; unit printed μl/ml): 41.8 μl/ml
Structure (SMILES): CCC(C)(C)C(=O)C(=O)N1CCCCC1C(=O)OC(CCc1ccccc1)CCc1ccccc1 (centres unmarked) [E]

Structure (SMILES): CCC(C)(C)C(=O)C(=O)N1CCC[C@H]1C(=O)OCCCc1cccnc1 [GPI 1046]
Clearance [3]: 63.8 µL/min
protection of fluorogold labeled retinal ganglion cells [4]: noticeable protection of a large proportion of the vulnerable ganglion cell population
spatial memory performance (swim distance) in retention testing [5]: significantly enhanced spatial memory performance
preservation of axons of protected neurons in the proximal stump ([1]; Example 13, 10 mg/kg/day s.c. for 28 days, 90 days after transection): preserved the axons of virtually all protected neurons
perikaryal neuroprotection: ganglion cell population spared ([1]; Example 13, 10 mg/kg/day s.c. for 28 days, sacrificed 90 days after transection): 25%
RGC Counts (mean density of Fluoro-gold labeled retinal ganglion cells in 400 μm × 400 μm fields) [1, 6]: small but not significant increase
Distal optic nerve myelin basic protein Density, loss [1, 7]: slightly increase the density of myelin
Distal optic nerve stump shrinkage (cross sectional area vs sham) [1, 7]: did not protect against shrinkage of the distal stump
ON axon Count (axonal density multiplied by ON area) [1, 7]: 6820
increased ON axon density (adjusted for optic nerve diameter) [1, 7]: 1.5×
ON Axon density (RT97 labeled optic nerve axons in 200 μm × 200 μm region) [1, 6]: 569 ± 23
Proximal optic nerve myelin basic protein Density, % recovery [1, 6]: 1.6 ± 3.0 SEM % recovery
RGC Counts (mean density of Fluoro-gold labeled retinal ganglion cells in 400 μm × 400 μm fields) ([1]; ONT, 28 days treatment, 90 days after transection, SEM): 67.9 ± 5.8
Distal optic nerve stump, less shrinkage [1, 8]: prevented cross sectional shrinkage of the distal stump
ON axon Count (axonal density multiplied by ON area) [1, 8]: 22,861*
increased ON axon density (adjusted for optic nerve diameter) [1, 8]: 5.0×
ON Axon density (RT97 labeled optic nerve axons in 200 μm × 200 μm region) [1, 9]: significant increase
Proximal optic nerve myelin basic protein Density, % recovery [1, 9]: 70 ± 6.3 SEM % recovery
Efficacy in protecting retinal ganglion cell axons from degeneration following optic nerve transection ([1]; ± SEM): 60.5% ± 3.9 SEM

Ki [2, 10]: > 10 µM
Structure (SMILES): CCC(C)(C)C(=O)C(=O)N1CCCCC1C(=O)O (centres unmarked) [G]
Efficacy in protecting retinal ganglion cell axons from degeneration following optic nerve transection ([1]; ± SEM): 34.0% ± 4.8% SEM

Structure (SMILES): CCC(C)(C)C(=O)C(=O)N1CCCCC1C(N)=O (centres unmarked) [H]
Efficacy in protecting retinal ganglion cell axons from degeneration following optic nerve transection ([1]; ± SEM): 30.3% ± 8.0% SEM

Structure (SMILES): O=C(OCCCc1cccnc1)[C@@H]1CCCN1C(=S)NC1CCCCC1 [I]
Efficacy in protecting retinal ganglion cell axons from degeneration following optic nerve transection ([1]; ± SEM): 23.8% ± 5.3 SEM

Clearance [3]: 1.5 µL/min
Structure (SMILES): CCC(C)(C)C(=O)C(=O)N1CCCC1C(=O)CCCCc1cccnc1 (centres unmarked) [J]
Efficacy in protecting retinal ganglion cell axons from degeneration following optic nerve transection ([1]; ± SEM): 15.8% ± 4.8% SEM

Structure (SMILES): CCC(C)(C)C(=O)C(=O)N1CCCC1C(=O)O (centres unmarked) [L]
Ki [2, 10]: > 7.74 µM
Efficacy in protecting retinal ganglion cell axons from degeneration following optic nerve transection ([1]; ± SEM): 7.8% ± 3.0% SEM

Structure (SMILES): CCC(C)(C)C(=O)C(=O)N1CCC[C@H]1C(=O)SCCC(c1ccccc1)c1ccccc1 [M]
Efficacy in protecting retinal ganglion cell axons from degeneration following optic nerve transection ([1]; ± SEM): −6.3% + 3.9% SEM

Clearance ([3]; unit printed μl/ml): 21.9 μl/ml
Structure (SMILES): CN(C)C(=O)N1CCCC1C(=O)SCCCc1ccccc1 (centres unmarked) [N]
